Results published in patent publication US11166977B2, “Compositions for treating meibomian gland dysfunction” (ADS THERAPEUTICS LLC, priority 2019, dated 2021).

What was measured:
[1] = test system: Patients with Primary or Recurrent Pterygium; assay: Phase 2a clinical trial in pterygium patients: ocular symptom and PSLQ questionnaire scores; assay type: in vivo, human
Source text: 2-HP-β-CD Formulation I was used as vehicle.
A trend of effects also remained after the stop of treatment at weeks 8, 16, and 24. The other questions didn't generate statistically significant effects.
These ocular symptoms are often observed in MGD patients. Scores of these symptoms were graded by patients as part of PSLQ questionnaires.

[2] = Aqueous solution at 37° C.; concentration of CDs 1.0 × 10^−2M; cited from earlier work

Molecule: 2-Hydroxypropyl-beta-cyclodextrin [Formulation 2-HP-β-CD]
- PSLQ Overall Average Score, Baseline Mean (SD) ([1]; Baseline, Modified Intent-to-Treat Population, N = 23): 0.70 (0.66)
- PSLQ Average Ocular Symptom Score, Baseline Mean (SD) ([1]; Baseline, mITT, N = 23): 0.88 (0.81)
- PSLQ Average Quality of Life Impact Score, Baseline Mean (SD) ([1]; Baseline, mITT, N = 23): 0.57 (0.92)
- PSLQ Average Vision-Related Functioning Score, Baseline Mean (SD) ([1]; Baseline, mITT, N = 23): 0.57 (0.80)
- PSLQ Average Vision-Related Functioning Score, Change from Baseline Mean (SD) ([1]; Week 2, mITT, N = 23): −0.27 (0.65)
- PSLQ Average Vision-Related Functioning Score, Change from Baseline Mean (SD) ([1]; Week 4, mITT, N = 23): −0.48 (0.65)
- PSLQ Average Vision-Related Functioning Score, Change from Baseline Mean (SD) ([1]; Week 8, mITT, N = 23): −0.43 (0.62)
- PSLQ Average Vision-Related Functioning Score, Change from Baseline Mean (SD) ([1]; Week 16, mITT, N = 23): −0.23 (0.56)
- PSLQ Average Vision-Related Functioning Score, Change from Baseline Mean (SD) ([1]; Week 24, mITT, N = 23): −0.11 (1.1)
- PSLQ scores compared to the baseline (in words) ([1]; human, in vivo): significant improvements

Molecule: OC[C@H]1O[C@@H]2O[C@H]3[C@H](O)[C@@H](O)[C@@H](O[C@H]4[C@H](O)[C@@H](O)[C@@H](O[C@H]5[C@H](O)[C@@H](O)[C@@H](O[C@H]6[C@H](O)[C@@H](O)[C@@H](O[C@H]7[C@H](O)[C@@H](O)[C@@H](O[C@H]1[C@H](O)[C@H]2O)O[C@@H]7CO)O[C@@H]6CO)O[C@@H]5CO)O[C@@H]4CO)O[C@@H]3CO [Alpha-CD, alpha-cyclodextrin]
- Increase in Absorbance (600 nm) Due to Cholesterol Dissolved by CDs [2]: zero

Molecule: COCC1O[C@@H]2O[C@@H]3C(COC)O[C@H](O[C@@H]4C(COC)O[C@H](O[C@@H]5C(COC)O[C@H](O[C@@H]6C(COC)O[C@H](O[C@@H]7C(COC)O[C@H](O[C@@H]8C(COC)O[C@H](O[C@H]1C(O)C2OC)C(OC)C8O)C(OC)C7O)C(OC)C6O)C(OC)C5O)C(OC)C4O)C(OC)C3O (stereo partly drawn) [DOM-beta-CD, 2,6-Di-O-methyl-beta-cyclodextrin]
- Increase in Absorbance (600 nm) Due to Cholesterol Dissolved by CDs [2]: a remarkable increase in absorbance

Molecule: OC[C@H]1O[C@@H]2O[C@H]3[C@H](O)[C@@H](O)[C@@H](O[C@H]4[C@H](O)[C@@H](O)[C@@H](O[C@H]5[C@H](O)[C@@H](O)[C@@H](O[C@H]6[C@H](O)[C@@H](O)[C@@H](O[C@H]7[C@H](O)[C@@H](O)[C@@H](O[C@H]8[C@H](O)[C@@H](O)[C@@H](O[C@H]9[C@H](O)[C@@H](O)[C@@H](O[C@H]1[C@H](O)[C@H]2O)O[C@@H]9CO)O[C@@H]8CO)O[C@@H]7CO)O[C@@H]6CO)O[C@@H]5CO)O[C@@H]4CO)O[C@@H]3CO [Gamma-CD, gamma-cyclodextrin]
- Increase in Absorbance (600 nm) Due to Cholesterol Dissolved by CDs [2]: zero

Molecule: COC(=O)c1ccc2c(c1)NC(=O)/C2=C(\Nc1ccc(N(C)C(=O)CN2CCN(C)CC2)cc1)c1ccccc1 [Nintedanib 0.2%, nintedanib, reference compound]
- PSLQ scores, Nintedanib 0.2% vs Vehicle (in words) ([1]; pterygium patients with dry eye condition): no statistically significant differences
